# Patent publication US20250295656A1, “COMBINATION OF LURBINECTEDIN AND IMMUNE CHECKPOINT INHIBITORS” (priority 2020, published 2025)
# Assays:
# U2OS WT cells = assay: Cytoplasmic quinacrine granularity (intracellular ATP, indicator of ATP release); type: cell-based, human; settings: lurbinectedin 1 nM to 1 μM, MTX 1 and 3 μM, dose-dependent, decreased over time, vs untreated controls
# Protocol: (a) Human osteosarcoma U2OS (a), human breast cancer HCC70 (b) human colon cancer HT29 cells (c) and murine methylcholantrene-induced fibrosarcoma MCA205 cells (d) were treated with lurbinectedin (Lurbi, 1 nM, 10 nM, 100 nM and 1 μM) for the indicated times. Subsequently, the cells were stained with 1 μM Hoechst 33342 and 1 μM propidium iodide and assessed for the loss of viability by automated image acquisition. Images were segmented, cellular debris was excluded and the number of cells with normal nuclear morphology was enumerated. Cells stably expressing CALR-GFP were treated as above. Following the cells were fixed with 3.7% of PFA, stained with 1 μM Hoechst 33342 and assessed by automated image acquisition. Images were segmented, cellular debris was excluded and CALR-GFP granularity (a surrogate marker of CALR exposure) was evaluated in the cytoplasmic region of cells with normal nuclear morphology. Wild type cells were treated as above and then assessed for cytoplasmic quinacrine granularity (after staining with the ATP-sensitive dye quinacrine together with Hoechst 33342) by automated image acquisition, segmentation and analysis. Cells stably expressing HMGB1-GFP were treated as above and then assessed for nuclear HMGB1-GFP fluorescence intensity. The cells were fixed and stained with Hoechst 33342 and images were acquired, segmented and analyzed. […]
# [1] = test system: mRNA transcription in U2OS cells; assay: Transcription level by nucleolin/fibrillarin colocalization; type: cell-based, human; settings: 10, 50 or 100 nM, actinomycin D as control
# Protocol: Human osteosarcoma U2OS cells were treated with 10, 50 or 100 nM lurbinectedin (Lurbi) for 6 hours. Thapsigargin (Thaps, 3 μM) was used as a positive control. The cells were fixed with 3.7% PFA and DNA was stained with 1 μM Hoechst 33342. Following the phosphorylation of the eukaryotic translation initiation factor 2 alpha (eIF2a) was assessed with phosphoneoepitope-specific antibody and was monitored by means of automated microscopy as an increase in cytoplasmic fluorescence intensity. (a,b) The level of transcription was measured in U2OS cell treated as above with Lurbi. The transcription inhibitor actinomycin D (ActD) was used as a control. The cells were fixed as above and following the colocalization of nucleolin and fibrillarin was assessed as an indicator for transcriptional activity (c,d) Scale bar equals 10 μm and bar charts depict mean values±SD of quadruplicate assessments (*p<0.01; *p<0.001, two-tailed Student's t test).
# In a systematic screening campaign, the capacity of lurbinectedin to induce immunogenic cell death in cancer cells was assessed in human osteosarcoma U2OS cells stably expressing fluorescent biosensors for the detection of CALR-relocation (as a surrogate marker for CALR surface exposure), HMGB1 release and Type I IFN responses together with U2OS WT cells stained with the ATP-sensitive dye quinacrine. […]
smiles,measurement,setting,value
COc1ccc2[nH]c3c(c2c1)CCN[C@]31CS[C@@H]2c3c(OC(C)=O)c(C)c4c(c3[C@H](COC1=O)N1[C@@H]2[C@H]2c3c(cc(C)c(OC)c3O)C[C@@H]([C@@H]1O)N2C)OCO4 [lurbinectedin],ATP signal (cytoplasmic quinacrine granularity),U2OS WT cells,significant decrease
same,mRNA transcription (dissociation of nucleolin and fibrillarin),[1],inhibited mRNA transcription at a level comparable to a known transcription-inhibitor
